Entries after “also recorded” stand apart in the source; their conditions may differ.
Assays:
[1] = system: ICAM-1s (circulating soluble ICAM-1); assay: Circulating soluble ICAM-1 in serum (ELISA) in long-term clinical study of patients with stable angina pectoris; assay type: in vivo, human; details: for concentration of ICAM-1s, Mean ± SD: 4 weeks double-blind
Method: This study comprised 3 consecutive phases: • a 7-day pre-study under placebo; • a 4-week double-blind and double-placebo randomized crossover study during which the patients received alternately (2×2 weeks) a molsidomine-based formulation containing an 8 mg dose, currently marketed in Belgium under the name Corvatard® (2 daily dosage units), and a molsidomine-based formulation containing a 16 mg dose, effective over 24 hours, currently marketed in Belgium under the name Coruno® (1 daily dosage unit); and • a 12-month study during which the 172 patients received a molsidomine-based formulation containing a 16 mg dose, currently marketed in Belgium under the name Coruno®. Also, and of greatest importance, the concentrations of ICAM-1s were measured after each of the three phases of the study, the first measurement constituting the baseline. More precisely, the concentrations of ICAM-1s were measured as follows: Blood samples (5 ml) were taken in non-heparinized tubes. These samples were kept at room temperature and then centrifuged. The serum was separated off and immediately frozen at −20° C. until required for analysis. The circulating ICAM-1 was measured using a commercially available ELISA test (R&D Systems Europe).

[2] = Weekly frequency of angina attacks and of consumption of s.l. ISDN 5 mg tablets in clinical study; assay type: in vivo, human
Method: This study comprised 3 consecutive phases: • a 7-day pre-study under placebo; • a 4-week double-blind and double-placebo randomized crossover study during which the patients received alternately (2×2 weeks) a molsidomine-based formulation containing an 8 mg dose, currently marketed in Belgium under the name Corvatard® (2 daily dosage units), and a molsidomine-based formulation containing a 16 mg dose, effective over 24 hours, currently marketed in Belgium under the name Coruno® (1 daily dosage unit); and • a 12-month study during which the 172 patients received a molsidomine-based formulation containing a 16 mg dose, currently marketed in Belgium under the name Coruno®. It is pointed out that, during the second phase of the study, the concomitant use of other antianginal drugs was prohibited with the exception of sublingual (s.l.) isosorbide dinitrate (ISDN) 5 mg in tablet form, which could be consumed ad libitum to alleviate the symptoms of anginal pain. In the course of this study, the weekly frequency of angina attacks and the weekly frequency of consumption of s.l. ISDN 5 mg tablets were noted.

[3] = 4-week treatment, versus baseline

Compound: CCOC(=O)[N-]c1cn(N2CCOCC2)n[o+]1 [molsidomine]
- effect on the levels of circulating ICAM-1s ([1]; 4-week treatment (16 mg o.a.d. or 8 mg b.i.d.)): no effect; also recorded: did not cause any effect
- concentration of ICAM-1s, Mean ± SD ([1]; alcohol <1 glass/day, N=161): 276 ± 89 ng/mL
- concentration of ICAM-1s, Mean ± SD ([1]; alcohol ≧1 glass/day, N=11): 242 ± 38 ng/mL
- concentration of ICAM-1s, Mean ± SD ([1]; all patients, N=172): 274 ± 87 ng/mL
- concentration of ICAM-1s, Mean ± SD ([1]; both concomitant drugs, N=20): 247 ± 45 ng/mL
- concentration of ICAM-1s, Mean ± SD ([1]; concomitant beta-blockers, N=30): 281 ± 58 ng/mL
- concentration of ICAM-1s, Mean ± SD ([1]; concomitant statins, N=38): 277 ± 70 ng/mL
- concentration of ICAM-1s, Mean ± SD ([1]; former smokers, N=59): 277 ± 67 ng/mL
- concentration of ICAM-1s, Mean ± SD ([1]; men, N=117): 264 ± 58 ng/mL
- concentration of ICAM-1s, Mean ± SD ([1]; no concomitant medication, N=78): 276 ± 112 ng/mL
- concentration of ICAM-1s, Mean ± SD ([1]; non-smokers, N=81): 262 ± 74 ng/mL
- concentration of ICAM-1s, Mean ± SD ([1]; smokers, N=32): 297 ± 138 ng/mL
- concentration of ICAM-1s, Mean ± SD ([1]; women, N=55): 293 ± 128 ng/mL
- consumption of sublingual nitro compounds [2, 3]: decreased
- number of angina attacks [2, 3]: decreased
- antianginal effects ([2]; after one year): maintained or even improved

Source: patent US7754715B2, “Sustained-release oral molsidomine composition for treating atherosclerosis” (Therabel Pharmaceuticals Limited, priority 2004, dated 2010)
